According to patent US10226044B2, “Agricultural and horticultural composition and method for cultivating plant” (AJINOMOTO CO., INC., priority 2014, dated 2019):

Columns and labels:
[1] = system: grape (Cabernet Sauvignon); assay: Anthocyanin content of pericarp of grape bunches sprinkled with isoleucine; type: in vivo; settings: 10 mM isoleucine + 0.1% Applauch BI, 6.25 mL per bunch; Cabernet Sauvignon after start of veraison
Protocol: For the test, Cabernet Sauvignon plants that had been cultivated in a test cultivation field and had begun veraison were used. Eight bunches of fruit of the grape were collected from each of two root clumps, i.e., total 16 bunches of fruit were collected, and 6.25 mL per bunch of 0.1% Applauch BI (Kao, control), 1 g/L of abscisic acid (ABA)+0.1% Applauch BI (positive control), or 10 mM isoleucine+0.1% Applauch BI were sprinkled on them. The samples were collected 4 times, and they were collected from 4 bunches for each time. Anthocyanin contained in pericarp was extracted with a mixed solution of water and acetone (1:2) from pericarp, and anthocyanin content was measured in the same manner as described above.

[2] = system: cherry tomato (Micro-Tom); assay: Sprinkling of Ile on cherry tomato (Micro-Tom): blooming, appearance, ripening and number of fruit; type: in vivo
Protocol: Three seeds of cherry tomato (Micro-Tom) were shown in compost contained in a slit pot (upper diameter 10.5 cm×height 8.8 cm), and cultivated in a biotron at a temperature of 23° C. with a light period of 14 hours (6:00 to 20:00) and dark period of 10 hours (20:00 to 6:00). As the compost, a mixture of Kumiai Nippi Engei Baido No. 1 (Nihon Hiryo) and vermiculite at a ratio of 3:1 (volume ratio) was used. After 3 weeks, one root clump was left, and the others were thinned out. From one month after the sowing to harvest, a 300-fold diluted solution of Hyponex liquid fertilizer (N:P:K=6:10:5, Hyponex Japan) was additionally applied as soil fertilizer by irrigation at a frequency of once a week in a volume of 100 mL per one root clump (pot). After the plants of five root clumps uniformly grew, and flower buds began to appear, water (Control, or Con) or 10 mM L-isoleucine aqueous solution (Ile) was sprinkled on the whole plants once a week. The sprinkled volume was 5 mL per one root clump. Then, the blooming, appearance of fruit, ripening of the fruit, and number of fruit produced were investigated for each root clump.

[3] = system: middle size fruit-bearing tomato (Tsukutsuku-shi); assay: Ripening and harvestable bunch number of middle size fruit-bearing tomato (Tsukutsuku-shi); type: in vivo; settings: 3 mM Ile + 0.2% Squash
Protocol: For the test, middle size fruit-bearing tomato plants in the second half of their growth (variety, Tsukutsuku-shi) that were cultivated in a greenhouse and bore fruit of the 12th tier were used. Neighboring 12 root clumps of the tomato plants were selected, 6 root clumps of them were used for control group receiving no treatment, and the other 6 root clumps were used for the Ile treatment group. […] The total volume of the solution sprinkled on the plants of 6 root clumps was 600 ml. After the treatment, the change in color of tomatoes was confirmed and harvested from each bunch on 11th, […], and 27th days. When substantially all the fruit colored (ripened), or many fruit were ready to overmature, that is, when the top of the fruit was still green, the fruit were harvested. The numbers of bunches harvested on the 11th day after the treatment were 3 for the no treatment group, and 7 for the Ile treatment group. The numbers of bunches harvested on the 18th day after the treatment were 4 for the no treatment group, and 3 for the Ile treatment group.

[4] = system: cherry tomato (Suncherry Pure); type: in vivo; settings: 10 mM sprinkled once a week
Protocol: Three seeds of cherry tomato (Suncherry Pure, Tokita Seed) were shown in compost contained in a slit pot, and cultivated in the same manner as described in Example 1, provided that the cultivation was performed in a greenhouse as in Example 2. The compost and application of fertilizer were the same or performed in the same manner as those described in Example 1. One month after the sowing, each seedling was permanently planted in a 9.0-cm long pot (top diameter 9 cm, height 20 cm, bottom diameter 6.4 cm), and cultivated until harvest. As for application of fertilizer, a 200-fold diluted solution of Vegetable Life A (Otsuka Chemical) was additionally applied as a fertilizer by irrigation in a volume of 100 mL per one root clump (pot) every two days from one month after the sowing to the harvest. After the plants of four root clumps uniformly grew, and flower buds began to appear, water (Con.), 10 mM L-isoleucine aqueous solution (Ile), or 10 mM proline aqueous solution (Pro) was sprinkled on the whole plants once a week. The sprinkled volume was adjusted in accordance with the growth of the plants, and it was 15 to 30 mL per one root clump. Then, ripening of fruit, number of fruit, amino acid content of fruit juice, sugar content and acidity of fruit juice, and antioxidant capacity of fruit juice were investigated for each root clump.

[5] = system: cherry tomato (Suncherry Pure); assay: Antioxidant capacity of tomato fruit extract (DPPH radical method); type: in vivo; settings: 70% methanol extract of mature fruit; compared to tomatoes sprinkled with water (Con.) or Pro
Protocol: After the plants of four root clumps uniformly grew, and flower buds began to appear, water (Con.), 10 mM L-isoleucine aqueous solution (Ile), or 10 mM proline aqueous solution (Pro) was sprinkled on the whole plants once a week. The sprinkled volume was adjusted in accordance with the growth of the plants, and it was 15 to 30 mL per one root clump.

Phelipanche aegyptiaca = settings: plants cultivated on an agar medium; cited from earlier work
[6] = system: LOX, JAR1, PI and MYC2 genes; assay: Investigation of isoleucine concentration for sprinkling (II): gene expression; type: in vivo, tomato (Caddy); settings: 50 mM Ile, 3 mL on leaf surfaces (0.01, 0.1, 50, 100 mM tested)
Protocol: Tomato plants (variety: Caddy, Tokita Seed) were cultivated in a biotron room in the same manner as described in Example 1. Three weeks after sowing, 3 mL of water, or a 0.01 mM, 0.1 mM, 50 mM, or 100 mM isoleucine aqueous solution (Ile) was sprinkled on leaf surfaces of each plant, sampling was performed from the second foliage leaves, and expression of LOX, JAR1, PI and MYC2 genes were analyzed in the same manner as described in Example

Psy, Pds and Zds genes = assay: Real-time PCR of genes involved in carotenoid synthesis in leaves; type: in vivo, cherry tomato; settings: 10 mM Ile, leaves 24 hours after sprinkling
Protocol: A 10 mM isoleucine aqueous solution (Ile) or water (Con.) was sprinkled on leaf surfaces of cherry tomato plants, and RNA was isolated from the leaves 24 hours afterward. By using the isolated RNA, expression of the genes that participate in the biosynthesis of carotenoids, genes of phytoene synthase (Psy), phytoene desaturase (Pds), and ξ-carotene desaturase (Zds), were analyzed. The extraction of RNA, synthesis of cDNA, and real-time PCR analysis were conducted in the same manner as described above.

[7] = 10 mM, once a week, compared to control

CC[C@H](C)[C@H](N)C(=O)O [Ile, L-isoleucine]
anthocyanin content of pericarp [1]: increases | Blooming and appearance of the fruit ([2]; 10 mM L-isoleucine sprinkled on whole plants once a week, 5 mL per root clump, compared to water (Con)): occurred sooner | Ripening of the tomatoes (fruit turned orange or red) [2, 7]: began earlier | number of colored tomatoes at the same time point [2, 7]: larger | numbers of blooms and fruit ([2]; 10 mM, once a week, compared to water (Con)): larger | number of harvested tomatoes, larger as compared to control ([2]; 10 mM, once a week, harvest on the 82nd day after sowing): 20% | number of bunches harvested on the 11th day after the treatment ([3]; 10 labeled bunches, no treatment group: 3): 7 | number of bunches harvested on the 27th day after the treatment ([3]; no treatment group: 3): 1 | number of bunches harvested on the 18th day after the treatment ([3]; no treatment group: 4): 3 | number of immature (unripened, green) fruits among the harvested fruit of 10 bunches ([3]; no treatment group: 15 of 85): 8 | total harvested fruit of 10 bunches ([3]; no treatment group: 85): 86 | final crop yield: number of fruit produced, larger as compared to water (Con.) [4]: 16% | number of tomatoes that had changed color [4]: larger in the order of the tomato plants sprinkled with Ile, Pro, and water (Con.) | antioxidant capacity (free radical-eliminating ability, DPPH) [5]: higher | infection of Phelipanche aegyptiaca in Arabidopsis thaliana (Phelipanche aegyptiaca): ineffective | Expression of the LOX, JAR1, PI and MYC2 genes [6]: promoted | expression of Pds (Psy, Pds and Zds genes): increased | expression of Psy (Psy, Pds and Zds genes): increased | expression of Zds (Psy, Pds and Zds genes): increased
